Measured values as given in patent US7714014B2, “Targeting GLI proteins in human cancer by small molecules” (The Regents of the University of California, priority 2005, dated 2010).
“Also recorded” adds a separate entry of the source.

Experiments:
[1] = tested on: Hedgehog (Hh) signaling pathway (Ptch1, Gli1) in NSCLC cell lines H460 and A549; test: Semi-quantitative RT-PCR of Hedgehog pathway genes; assay type: cell-based, human; settings: for expression of Hh pathway key components and direct target genes (Ptch1, Gli1): 30 μM, 2 days, data not shown
Description: Total RNA from cell lines or tissue samples was isolated using Qiagen RNeasy Mini Kit (Valencia, Calif.). RT-PCR was performed in GeneAmp PCR system 2700 (Applied Biosystems, Foster City, Calif.) using One-step RT-PCR Kit from Invitrogen Life Technologies (Carlsbad, Calif.). Primers for RT-PCR were obtained from Operon Technologies Inc. (Alameda, Calif.). Primer sequences for amplifying different genes in Hedgehog and Wnt signaling pathways are listed in the table below (Table 1; F, forward primer; R, reverse primer). The expected size of the PCR product is indicated for each primer pair. GAPDH was used as internal control.
To further examine the mechanism of action of the small molecule compounds of the present invention, the effect of compounds FN1-5 and FN1-8 on the Hedgehog (Hh) signaling pathway was examined in NSCLC cell lines H460 and A549. H460 and A549 cells were incubated with 30 μM of each compound (FN1-5 or FN1-8) for 2 days before isolation of total RNA that was used for semi-quantitative RT-PCR analysis. […] GAPDH served as a control.

LOX (melanoma) = test: Apoptosis analysis (Annexin V FITC, flow cytometry); assay type: cell-based, human; settings: 3 days
Description: Apoptosis was analyzed by using an Annexin V FITC Apoptosis Detection Kit (Biosource, Camarillo, Calif.), according to the manufacturer's protocol. After treatment with different small molecule compounds at various concentrations for about 3 days, cells were harvested by trypsinization, stained and immediately analyzed by flow cytometry (FACScan; Decton Dickinson, Franklin Lake, N.J.). Early apoptotic cells with exposed phosphatidylserine but intact cell membranes will bind to Annexin V-FITC, but not propidium iodide (PI). Cells in necrotic or late apoptotic stages will be labeled with both Annexin V-FITC and PI. “% apoptotic cells” or “% apoptosis” refers to the combined early and late apoptotic cells.
The cell killing of LOX cells by treatment with small molecule compounds FN1-5 and FN1-8 was analyzed in greater detail using various concentrations of these two compounds and flow cytometry. […] (Tables 2 and 3).

[2] = tested on: colon cancer cell lines LoVo and CaCO2; test: Cell survival assay (crystal violet); assay type: cell-based, human; settings: for cell killing: data not shown
Description: (§1) Typically, the small molecule compounds of the present invention were dissolved in DMSO at a concentration of 30 mM. The small molecule compounds were then tested under cell culture conditions at different concentrations ranging from 0, 10, 30, 50, to 100 uM. To determine cell survival after treatment, the cells were incubated with the small molecule compounds in 6-well plates for about 3 days. After removal of the cell culture medium, 1-ml of 0.5% crystal violet solution (prepared in 20% ethanol and 20% methanol) was added to stain the cells for 5 min. Then the crystal violet solution was rinsed clean with tap water. Cell survival was estimated based on the density of crystal stained plates.
Both, small molecule compounds FN1-5 and FN1-8 induced apoptosis in CaCO2 (Tables 2 and 3).

[3] = tested on: human SOCS3 promoter in NSCLC cell line A549; test: SOCS3 promoter-luciferase reporter assay; assay type: cell-based; settings: A549, 30 μM, 18-24 hours
Description: One day before transfection, cells (1×10^5) were plated in 12-well plates with growth medium without antibiotics. When cells reached 80-90% of confluence they were co-transfected using 0.5 μg of each promoter construct in pGL3Basic vector and 0.025 μg pRL-TK Vector (Promega; Madison, Wis.) containing Renilla Luciferase as an internal control for the transformation efficiency. Lipofectamine 2000™ (Invitrogen Life Technologies) was used to mediate transfection for about 6 hours. Then the medium was replaced with fresh medium containing various small molecule compounds at a concentration of 30 μM, and the resulting cells were cultured for an additional 18-24 hours and subjected to luciferase assay. Briefly, cells were lysed in a lysis buffer and Firefly and Renilla Luciferase activities in cells of each well, were measured using Dual-Luciferase Assay System (Promega) and an illuminometer. The measured luciferase activities were normalized to pRL-TK Vector activity and were given relative to the basal activity of empty pGL3-Basic Vector, which was set to unity. The data shown represent mean values (±S.D.). All measurements were performed in triplicate and repeated in at least three independent experiments. The human Wnt-2 promoter-luciferase construct, the human SOCS3 promoter-Luciferase construct and the human Gremlin promoter-luciferase construct were cloned and characterized in the laboratory of Dr. Jablons at the University of California, San Francisco (San Francisco, Calif.; He et al., Biochem Biophy Res Comm, 2003; and unpublished data). The 6GLI-TKO-luciferase construct (containing 6 repeats of consensus GLI DNA binding sequence) was kindly provided by Dr. Matthias Hebrok's laboratory at the University of California, San Francisco (San Francisco, Calif.).
As a third specificity test for the small molecule compounds of the present invention, the ability of these compounds to regulate the expression of genes that are not down-stream targets of the Gli activation was analyzed. SOCS3, an inhibitor and down-stream target gene of JAK/STAT pathway was chosen for this experiment. Expression of SOCS3 is not under control of Gli and/or Wnt activation. Furthermore, no GLI and TCF binding sites were found in the human SOCS3 promoter cloned in the laboratory of Dr. Jablons (University of California, San Francisco; data not shown). Thus, SOCS3 promoter-luciferase reporter activity was measured after the treatment of the NSCLC cell line A549 with small molecule compounds FN1-5, FN1-7, FN1-8, and FN1-9U.

[4] = tested on: human esophageal cancer cell lines SEG-1, TE-7, BIC-1, and OE21; test: Cell survival assay (crystal violet); assay type: cell-based; settings: for cell killing: 50 μM
Description: as §1
The cell-based cytotoxicity assay described herein was used to determine the effect of small molecule compounds FN1-5 and FN1-8 in the human esophageal cancer cell lines SEG-1, TE-7, BIC-1, and OE21. Viability of these cells was analyzed after treatment with 10, 30 and 50 μM FN1-5 or FN1-8.

SMILES	inhibitory effect on Hh and Wnt pathways compared with FN1-5 [1]	expression of Hh pathway key components and direct target genes (Ptch1, Gli1) [1]	% of apoptotic cells (LOX (melanoma); 10 μM) [%]	% of apoptotic cells (LOX (melanoma); 30 μM) [%]	% of apoptotic cells (LOX (melanoma); 50 μM) [%]	cell killing potency compared with FN1-5 [2]	cell killing [2]	SOCS3 promoter activity [3]	cell killing potency compared with FN1-5 [4]	cell killing [4]
O=C(NCCc1ccc(O)cc1)C1C(c2ccccc2)=NN(c2ccccc2)C1c1ccccc1 (centres unmarked) [FN1-8, N-(2-(4-Hydroxyphenyl)ethyl)-1,3,5-triphenyl-4,5-dihydro-pyrazole-4-carboxyamide]	more inhibitory effect	downregulated	16.7	19.0	78.9	more potent than FN1-5	dramatic cell killing	inactive; also recorded: do not regulate SOCS3 promoter activity	more potent	dramatic cell killing
O=C(NCCCCCO)C1C(c2ccccc2)=NN(c2ccccc2)C1c1ccccc1 (centres unmarked) [FN1-5, N-(5-Hydroxypentyl)-1,3,5-triphenyl-4,5-dihydro-pyrazole-4-carboxyamide]		downregulated	14.0	16.6	58.1		dramatic cell killing	inactive; also recorded: do not regulate SOCS3 promoter activity		dramatic cell killing
